For test [1], the system named is non-synovial control cancer cell lines (RD, HCT116, Calu6). The experiment in a line: Growth of non-synovial control cancer cell lines, 14-day crystal violet staining. It is filed as cell-based. Conditions: treated daily, day 14, FIG. 9. As for the experimental part:
(§1) Procedure: Cells were seeded into 6-well or 12-well plates and were treated daily with a BRD9 degrader (Compound 1), a bromo-domain BRD9 binder (Compound 2), E3 ligase binder (lenalidomide), DMSO, or staurosporin (positive control for cell killing), at indicated concentrations. The number of cells was optimized for each cell line. Growth media was refreshed every 5 days. By day 14, medium was removed, cells were washed with PBS, and stained using 500 μL of 0.005% (w/v) crystal violet solution in 25% (v/v) methanol for at least 1 hour at room temperature. Subsequently plates were scanned on an Odyssey CLx Imaging system.

Test [2] relates to non-synovial control cancer cell lines (293T, A549, G401). The test can be described thus: Growth of non-synovial control cancer cell lines (crystal violet, colony imaging). It is filed as cell-based. Conditions: FIGS. 5, 6, 7. As for the experimental part: (§2) Cells were seeded into 12-well plates and treated with DMSO, 1 μM BRD9 inhibitor, Compound 2 (also known as BI-7273, see Martin et al, J Med Chem. 59(10):4462-4475 (2016); see structure of Compound 2 below), or 1 μM BRD9 degrader, Compound 1.
(§3) The number of cells was optimized for each cell line. Growth medium and compounds were refreshed every 3-5 days. SYO1, Yamato, A549, 293T and HS-SY-II cells were fixed and stained at day 11. ASKA cells were fixed and stained at day 23. Staining was done by incubation with crystal violet solution (0.5 g Crystal Violet, 27 ml 37% Formaldehyde, 100 mL 10×PBS, 10 mL Methanol, 863 dH20 to 1 L) for 30 min followed by 3× washes with water and drying the plates for at least 24 h at room temperature. Subsequently plates were scanned on an Odyssey CLx Imaging system (FIG. 6).
(§4) Cells were seeded into 96-well ultra low cluster plate (Costar, #7007) in 200 μL complete media and treated at day 2 with DMSO, Staurosporin, or BRD9 degarder, Compound 1, at indicated doses (FIG. 7). Media and compounds were changed every 5 d and cell colonies were imaged at day 14.

Test [3] concerns synovial sarcoma cell lines (SYO1, Yamato, HS-SY-II, ASKA). The test can be described thus: Growth of synovial sarcoma cell lines (IncuCyte confluency, crystal violet, colony imaging). Particulars: 1 μM or indicated concentrations, FIGS. 5, 6, 7. It is filed as cell-based. On the procedure:
Cells were treated with DMSO or the BRD9 degrader, Compound 1, at indicated concentrations, and proliferation was monitored from day 7 to day 14 by measuring confluency overtime using an IncuCyte live cell analysis system (FIG. 5). Growth medium and compounds were refreshed every 3-4 days.
as §2, §3, §4

The test system of test [4] is synovial sarcoma cell lines (SYO1, HS-SY-II, ASKA). The experiment in a line: Growth of synovial sarcoma cell lines, 14-day crystal violet staining. In kind it is cell-based. Conditions: for inhibition of cell growth: SYO1, HS-SY-II, ASKA, treated daily, day 14, FIG. 8. On the procedure: as §1
Test [5] has as its system SYO1 cells. The test can be described thus: Cell cycle analysis (Click-iT Plus EdU Flow Cytometry Assay). It is filed as cell-based. Conditions: SYO1, 200 nM or 1 μM, 8 or 13 days, compared to DMSO and lenalidomide. As for the experimental part: Procedure: SYO1 cells were treated for 8 or 13 days with DMSO, a BRD9 degrader (Compound 1) at 200 nM or 1 μM, or an E3 ligase binder (lenalidomide) at 200 nM. Compounds were refreshed every 5 days. Cell cycle analysis was performed using the Click-iT™ Plus EdU Flow Cytometry Assay (Invitrogen). The apoptosis assay was performed using the Annexin V-FITC Apoptosis Detection Kit (Sigma A9210). Assays were performed according to the manufacturer's protocol.
A general note: Flow cytometry measures light scatter and fluorescence of single cells or particles in a stream.

In test [6] the target is BRD9 bromodomain (Flag-BRD9 P133-K239) (Homo sapiens (Human), UniProt Q9H8M2). The test can be described thus: BRD9 bromodomain TR-FRET competition binding assay. Particulars: Table 4; 3 nM Flag-BRD9, 3.75 nM biotinylated ligand, 90 minutes at room temperature. As for the experimental part:
Procedure: His-Flag-BRD9 (P133-K239; Swiss Prot Q9H8M2; SEQ ID NO:1 mgsshhhhhhenlyfq/gdykddddkgslevlfqg/[…] […]) was cloned, expressed, purified, and then treated with TEV protease. Cleaved His tag was removed by purification. The binding of a biotinylated small molecule ligand of BRD9 was assessed via the LANCE® TR-FRET platform (PerkinElmer), and the compounds were assayed for inhibitory activity against this interaction.
A mixture of biotinylated-ligand and SureLight™ Allophycocyanin-Streptavidin (APC-SA, PerkinElmer AD0201) in 50 mM HEPES (pH 7.4), 50 mM NaCl, 1 mM TCEP (pH 7), 0.01% (v/v) Tween-20, 0.01% (w/v) bovine serum albumin was added to a white 384-well PerkinElmer Proxiplate Plus plate. DMSO or 3-fold serially diluted compounds were then added to the Proxiplate followed by addition of Flag-BRD9. After a 10-minute incubation at room temperature, Eu-W1024 anti-FLAG (PerkinElmer, AD0273) was added. The final reaction mixture that contained 3.75 nM biotinylated ligand, 3 nM Flag-BRD9, 7.5 nM SureLight™ Allophycocyanin-Streptavidin, and 0.2 nM Eu-W1024 anti-FLAG was incubated at room temperature for 90 minutes.
Results: The plates were then read on a PerkinElmer Envision plate reader to determine the ratio of emission at 665 nm over 615 nm. […]
(In TR-FRET formats the signal depends on donor and acceptor labels being close together.)

The target in test [7] is 3×FLAG-NLuc-BRD9 (Nano luciferase-BRD9 fusion protein) in SYO-1 cells (Homo sapiens (Human), UniProt Q9H8M2). The experiment in a line: SYO1 BRD9 NanoLuc degradation assay. Conditions: SYO-1 cells expressing 3×FLAG-NLuc-BRD9, 6 hours incubation, read-out: SYO1 BRD9-NanoLuc degradation IC50. It is filed as cell-based. As for the experimental part:
Procedure: A stable SYO-1 cell line expressing 3×FLAG-NLuc-BRD9 was generated. On day 0 cells were seeded in 30 μL media into each well of 384-well cell culture plates. The seeding density was 8000 cells/well. On day 1, cells were treated with 30 nL DMSO or 30 nL of 3-fold serially DMSO-diluted compounds (10 points in duplicates with 1 μM as final top dose). Subsequently plates were incubated for 6 hours in a standard tissue culture incubator and equilibrated at room temperature for 15 minutes. Nanoluciferase activity was measured by adding 15 μL of freshly prepared Nano-Glo Luciferase Assay Reagent (Promega N1130), shaking the plates for 10 minutes and reading the bioluminescence using an EnVision reader.
Results: The Inhibition % was calculated using the following formula: % Inhibition=100×(LuMHC−Lumsample)/(LumHC−LumLC). DMSO treated cells are employed as High Control (HC) and 1 μM of a known BRD9 degrader standard treated cells are employed as Low Control (LC).

SMILES strings stand for the structures. Where two headings read alike, the source gives them in different places.

Chain of 3×FLAG-NLuc-BRD9 (Nano luciferase-BRD9 fusion protein) in SYO-1 cells (Q9H8M2 whole entry, the tested form may be a part): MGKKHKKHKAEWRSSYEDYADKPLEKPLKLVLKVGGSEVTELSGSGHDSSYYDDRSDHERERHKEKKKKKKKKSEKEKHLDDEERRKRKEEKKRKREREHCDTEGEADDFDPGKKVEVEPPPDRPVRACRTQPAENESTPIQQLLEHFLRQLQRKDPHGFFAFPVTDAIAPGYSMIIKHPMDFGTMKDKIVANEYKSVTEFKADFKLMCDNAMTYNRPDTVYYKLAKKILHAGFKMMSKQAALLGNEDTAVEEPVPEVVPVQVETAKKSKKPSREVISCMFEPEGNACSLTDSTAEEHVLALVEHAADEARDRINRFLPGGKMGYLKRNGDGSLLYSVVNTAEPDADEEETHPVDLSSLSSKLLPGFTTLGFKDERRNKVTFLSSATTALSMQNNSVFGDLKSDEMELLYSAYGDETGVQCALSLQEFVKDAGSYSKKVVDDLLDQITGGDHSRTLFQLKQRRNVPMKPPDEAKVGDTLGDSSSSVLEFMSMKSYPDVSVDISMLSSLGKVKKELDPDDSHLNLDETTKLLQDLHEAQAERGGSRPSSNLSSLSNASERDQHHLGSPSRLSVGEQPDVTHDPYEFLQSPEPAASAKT
Chain of BRD9 bromodomain (Flag-BRD9 P133-K239) (Q9H8M2 133-239): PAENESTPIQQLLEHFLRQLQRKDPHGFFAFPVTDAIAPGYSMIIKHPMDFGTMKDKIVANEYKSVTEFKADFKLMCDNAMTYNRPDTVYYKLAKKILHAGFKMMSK

For the compound `COc1cc(-c2cn(C)c(=O)c3cnccc23)cc(OC)c1CN(C)CC(=O)NCCOCCOCCNc1cccc2c1C(=O)N(C1CCC(=O)NC1=O)C2=O` (stereo not drawn) [Compound 1], the “inhibition of cell growth” value is reported as “did not result in inhibition of the growth” in test [1], “does not result in inhibition of the growth” in test [2], “inhibition of the growth of the cells” in test [3] and “inhibition of the growth of the cells” in test [4]. In addition, in test [4] (all synovial cell lines, versus Compound 2 and lenalidomide), the “growth inhibition compared among tested agents” value is listed as “most significant growth inhibition in all synovial cell lines”. In addition, in test [5], the “numbers of cells in the S-phase of the cell cycle” value is given as “reduced numbers of cells in the S-phase of the cell cycle”. Turning to `COc1cc(-c2cn(C)c(=O)c3cnccc23)cc(OC)c1CN(C)C` [Compound 2], the “inhibition of cell growth” value is reported as “did not result in inhibition of the growth” in test [1], “does not result in inhibition of the growth” in test [2], “inhibition of the growth of the cells” in test [3] and “inhibition of the growth of the cells” in test [4].

With `COc1cc(-c2cn(C)c(=O)c3cnccc23)cc(OC)c1CN1CC2(CCN(C(=O)CCOCCOc3cccc4c3C(=O)N(C3CCC(=O)NC3=O)C4=O)C2)C1` (stereo not drawn) [Compound D90], in test [6], the IC50 is < 10 nM. In addition, the DC50 in test [7] (Table 5A) fell in the range of 10 to 100 nM.

`COc1cc(-c2cn(C)c(=O)c3cnccc23)cc(OC)c1CN1CCC(COC2CCN(C(=O)CCOCCOc3cccc4c3C(=O)N(C3CCC(=O)NC3=O)C4=O)C2)CC1` (stereo not drawn) [Compound D94] gave a concentration for half-maximal inhibition (IC50) in test [6] of 10 to 100 nM. Besides, in test [7] (Table 5A), the DC50 was 10 to 100 nM. As for `COc1cc(-c2cn(C)c(=O)c3cnccc23)cc(OC)c1CN1CCC2(CC1)CCN(C(=O)CCC#Cc1ccc3c(c1)C(=O)N(C1CCC(=O)NC1=O)C3=O)C2` (stereo not drawn) [Compound D220], the DC50 in test [7] (Table 5B) was < 10 nM. Same read-out and setting: the same measure for `COc1cc(-c2cn(C)c(=O)c3cnccc23)cc(OC)c1CN(C)CCCCNC1CC2(CCN(c3ccc4c(c3)C(=O)N(C3CNC(=O)CC3=O)C4=O)CC2)C1` (stereo not drawn) [Compound D247]: < 10 nM; for `COc1cc(-c2cn(C)c(=O)c3cnccc23)cc(OC)c1CN(C)CCCCN1CC2(CCN(c3ccc4c(c3)C(=O)N(C3CCC(=O)NC3=O)C4=O)C2)C1` (stereo not drawn) [Compound D248]: 10 to 100 nM; for `COc1cc(-c2cn(C)c(=O)c3cnccc23)cc(OC)c1CN1CC(n2cc(COCc3ccc4c(c3)C(=O)N(C3CCC(=O)NC3=O)C4=O)nn2)C1` (stereo not drawn) [Compound D298]: < 10 nM.

For the compound `COc1cc(-c2cn(C)c(=O)c3[nH]ccc23)cc(OC)c1CN1CCC2(CC1)CN(c1ccc3c(c1)C(=O)N(C1CCC(=O)NC1=O)C3)C2` (stereo not drawn) [Compound D419], the DC50 in test [7] (Table 5C) is < 10 nM.

As for `COc1cc(-c2cn(C)c(=O)c3c[nH]nc23)cc(OC)c1CN1CCC2(CC1)CN(c1ccc3c(c1)C(=O)N(C1CCC(=O)NC1=O)C3)C2` (stereo not drawn) [Compound D420], in test [7] (Table 5C), the DC50 is < 10 nM.

Take `COc1cc(-c2cc(C(F)F)c(=O)n(C)c2)cc(OC)c1CN1CC(C#Cc2ccc3c(c2)C(=O)N(C2CCC(=O)NC2=O)C3)C1` (stereo not drawn) [Compound D439]: the DC50 in test [7] (Table 5C) is < 10 nM. Same read-out and setting: the same measure for `COc1cc(-c2cc(C)c(=O)n(C)c2)cc(OC)c1CN1CC(C)(C#Cc2ccc3c(c2)C(=O)N(C2CCC(=O)NC2=O)C3)C1` (stereo not drawn) [Compound D450]: < 10 nM; for `COc1cc(-c2cc(C)c(=O)n(C)c2)cc(OC)c1CN1CC(C#Cc2ccc3c(c2)C(=O)N(C2CCC(=O)NC2=O)C3)C1C` (stereo not drawn) [Compound D453]: < 10 nM. Same read-out and setting: the same measure for `C/C=C/Cn1cc(-c2ccc(CN3CCN(S(=O)(=O)c4ccc5c(c4)C(=O)N(C4CCC(=O)NC4=O)C5)CC3)c(Cl)c2)n2cncc2c1=O` (stereo not drawn) [Compound D464]: ≥ 1000 nM.

Usually IC50 stands for the concentration needed to halve the response being measured. The low end stands for greater potency in that assay, the high end for weaker potency in that assay.

(Values after patent US11560381B1, “Compounds and uses thereof” (Foghorn Therapeutics Inc., priority 2019, dated 2023).)
